Consider 7 compounds from patent US20230286973A1, “PROTEIN SECRETION INHIBITORS” (KEZAR LIFE SCIENCES, priority 2020, published 2023).

Like-named read-outs stand apart in the source and are kept apart here. Where only a bound is given, the exact number is not on record here.

Data set [1] in a line: Liver Microsome Stability Assay (rat). The conditions noted are these: rat liver microsomes, with NADPH, 1.0 uM compound. A general note: Liver microsomes are vesicles of endoplasmic reticulum, rich in cytochrome P450 enzymes.
Experimental: (§1) Stability of a compound was assessed in the presence of liver microsomes from various sources—mouse, rat, monkey and human liver microsomes. 1.0 uM compound, 0.4% DMSO in 0.1 M Potassium Phosphate with 1.0 mg/mL liver microsomes, were incubated at 37° C. with or without 1 mM NADPH. The samples were quenched at 0, and 30 minutes.
Data set [2] relates to multiple myeloma cell line U266B1. Nature of the data set: U266 Cell Viability Assay. The data set is classed as cell-based, human. The conditions noted are these: Homo sapiens, U-266, 48 h, U266B1 cells, Celltiter-Glo. An outline of the steps: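 Steps: culture in RPMI 1640 plus 10% FBS and 2 mM glutamine; plate and add compound dilutions; incubate 48 hours at 37° C., 5% CO2; add CellTiter-Glo and quantify luciferase signal.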

The subject of data set [3] is PD1-ss+10aa/Gaussia Luciferase. In words: Dox-Induced PD1-ss-Gluc Assay. The data set is classed as cell-based. The conditions noted are these: 24 hr Dox induction, 293FRT/TO cells, read-out: 24 hr Dox Inducible PD1ssGluc 293FRT/TO: Mean IC50. The method in brief: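 Compounds were added in DMSO/media with doxycycline and incubated at 37 °C, 5% CO2, on 293 T-REx cells plated one day earlier. These cells stably express, under tetracycline-regulated control, a Gaussia luciferase fused to the PD1 signal peptide plus 10 residues. Structures drawn without stereochemistry were tested as stereoisomer mixtures.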

The test system of data set [4] is multiple myeloma cell line NCI-H929. Nature of the data set: H929 Cell Viability Assay. The conditions noted are these: Homo sapiens, NCI-H929, 48 h, NCI-H929 cells, Celltiter-Glo. Type of data set: cell-based, human. The method in brief: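 Luminescent ATP detection (CellTiter-Glo) after 48 hours of compound exposure measures viability. Cells were plated in RPMI 1640 containing 10% fetal bovine serum and kept at 37° C under 5% CO2.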
On the technique in general: In ATP-based viability assays light output follows the ATP content of the culture.

The nature of data set [5]: Liver Microsome Stability Assay (mouse). The conditions noted are these: mouse liver microsomes, with NADPH, 1.0 uM compound.
Experimental: as §1
For data set [6], the system named is HER3-ss+4aa/Gaussia Luciferase. Nature of the data set: Dox-Induced Her3-ss-Gluc Assay. The conditions noted are these: 24 hr Dox induction, 293FRT/TO cells, read-out: 24 hr Dox Inducible Her3(ss + 4)Gluc 293FRT/TO: Mean IC50. The data set is classed as cell-based. An outline of the steps:
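Cells were seeded a day ahead, then given compound diluted in DMSO/media with doxycycline to induce expression of the HER3 signal sequence (+4 aa)–Gaussia luciferase fusion. Incubation was at 37° C., 5% CO2, in a stable Flp-In 293 T-REx line.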

The nature of data set [7]: Liver Microsome Stability Assay (monkey). The conditions noted are these: monkey liver microsomes, with NADPH, 1.0 uM compound.
Experimental: as §1
The nature of data set [8]: Liver Microsome Stability Assay (human). The conditions noted are these: human liver microsomes, with NADPH, 1.0 uM compound.
Experimental: as §1
For data set [9], the system named is TNFα-FL/Gaussia Luciferase. In words: Dox Induced TNFα-FL-Gluc Assay. The conditions noted are these: for IC50: 24 hr Dox induction, 293FRT/TO cells, read-out: 24 hr Dox Inducible TNFaFLGluc 293FRT/TO: Mean IC50; for 24 hr Dox Inducible TNFaFLGluc 293FRT/TO: TNF/PD1: ratio of TNFaFLGluc IC50 to PD1ssGluc IC50. Type of data set: cell-based. The method in brief:
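Stereoisomer mixtures were tested where stereochemistry is not drawn. Induction used doxycycline added together with compound dilutions in DMSO/media to Flp-In 293 T-REx cells carrying a T-REx-regulated TNFα (aa 1-233)-Gaussia luciferase construct, then incubated at 37 °C, 5% CO2.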

Data set [10] has as its system IL-2-FL/Gaussia Luciferase. Nature of the data set: Dox Induced IL2-FL-Gluc Assay. Type of data set: cell-based. The conditions noted are these: for IC50: 24 hr Dox induction, 293FRT/TO cells, read-out: 24 hr Dox Inducible IL2FLGluc 293FRT/TO: Mean IC50; for 24 hr Dox Inducible IL2FLGluc 293FRT/TO: IL2/PD1: ratio of IL2FLGluc IC50 to PD1ssGluc IC50. An outline of the steps:
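Cells are plated one day ahead, then receive compound dilutions in DMSO/media with doxycycline and incubate at 37° C, 5% CO2. They are Flp-In 293 T-REx cells expressing a full-length IL-2 (amino acids 1-153)–Gaussia luciferase fusion under T-REx control.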

Where [11] appears, read: '<=>' given where both are I.A.

For orientation: EC50 means the concentration at which the effect is half-maximal. Turning to `CC(=O)Nc1ccc(N2CCC[C@@H]2c2csc(NC(=O)c3cccn3Cc3ccnc(F)c3)n2)cc1F` [Compound A93, (R)-N-(4-(1-(4-acetamido-3-fluorophenyl)pyrrolidin-2-yl)thiazol-2-yl)-1-((2-fluoropyridin-4-yl)methyl)-1H-pyrrole-2-carboxamide], the “Liver Microsome Stability (Multiple Species): Rat - % Remaining after 30 min w/NADPH” value in data set [1] is reported as 0.11%. Moreover, the values for the concentration giving a half-maximal response (EC50) in data set [2] and in data set [4] were over 25 µM and 0.39 µM, respectively. The IC50 in data set [3] amounted to 0.0123 µM; in data set [6] it was 0.0271 µM; in data set [9] it was 0.187 µM; in data set [10] it was 0.0263 µM. In addition, in data set [5], the “Liver Microsome Stability (Multiple Species): Mouse - % Remaining after 30 min w/NADPH” value is listed as 1.18%. For the same compound, the “Liver Microsome Stability (Multiple Species): Monkey - % Remaining after 30 min w/NADPH” value in [7] is given as 0.14%. Moreover, the “Liver Microsome Stability (Multiple Species): Human - % Remaining after 30 min w/NADPH” value in data set [8] is 4.24%. Also, the “24 hr Dox Inducible TNFaFLGluc 293FRT/TO: TNF/PD1” value in data set [9] is reported as 15.1. Besides, in [10], the “24 hr Dox Inducible IL2FLGluc 293FRT/TO: IL2/PD1” value is reported as 2.1.

Turning to `C[C@@H](CC#N)Cn1cccc1C(=O)Nc1nc([C@H]2CCCN2c2ccccc2)cs1` [Compound C87, 1-((S)-3-cyano-2-methylpropyl)-N-(4-((R)-1-phenylpyrrolidin-2-yl)thiazol-2-yl)-1H-pyrrole-2-carboxamide], the “Liver Microsome Stability (Multiple Species): Rat - % Remaining after 30 min w/NADPH” value in data set [1] is recorded as 6.85%. The concentration giving a half-maximal response (EC50) in data set [2] was over 25 µM; in data set [4], 4.05 µM. Moreover, the IC50 in data set [3] (mean) is 0.0784 µM; in data set [6] (mean) it was 0.129 µM; in data set [9] (mean), 0.731 µM; in data set [10] (mean), 0.238 µM. In data set [5], the “Liver Microsome Stability (Multiple Species): Mouse - % Remaining after 30 min w/NADPH” value is reported as 14.2%. Moreover, the “Liver Microsome Stability (Multiple Species): Monkey - % Remaining after 30 min w/NADPH” value in data set [7] is listed as 0.21%. Besides, in [8], the “Liver Microsome Stability (Multiple Species): Human - % Remaining after 30 min w/NADPH” value amounted to 12.8%. In addition, in data set [9] (setting [11]), the “24 hr Dox Inducible TNFaFLGluc 293FRT/TO: TNF/PD1” value is 9.32. The “24 hr Dox Inducible IL2FLGluc 293FRT/TO: IL2/PD1” value in [10] (setting [11]) was 3.

For the compound `O=C1CCCC(/C=C/c2csc(NC(=O)c3cccn3Cc3ccncc3)n2)N1` (stereo not drawn) [Compound B13, (E)-N-(4-(2-(6-oxopiperidin-2-yl)vinyl)thiazol-2-yl)-1-(pyridin-4-ylmethyl)-1H-pyrrole-2-carboxamide], the “Liver Microsome Stability (Multiple Species): Rat - % Remaining after 30 min w/NADPH” value in data set [1] is given as 6.37%. Further, the EC50 in data set [2] and in [4] was over 25 µM throughout. The IC50 in data set [3], in data set [6], in [9] and in [10] was over 25 µM each time. For the same compound, the “Liver Microsome Stability (Multiple Species): Mouse - % Remaining after 30 min w/NADPH” value in data set [5] amounted to 4.96%. The “Liver Microsome Stability (Multiple Species): Monkey - % Remaining after 30 min w/NADPH” value in data set [7] is recorded as 0.6%. The “Liver Microsome Stability (Multiple Species): Human - % Remaining after 30 min w/NADPH” value in [8] was determined as 0.48%. Besides, in [9], the “24 hr Dox Inducible TNFaFLGluc 293FRT/TO: TNF/PD1” value is on record as “<=>1.00”. The “24 hr Dox Inducible IL2FLGluc 293FRT/TO: IL2/PD1” value in [10] amounted to 1.

With `CCn1cnc(/C=C/c2csc(NC(=O)c3cccn3Cc3ccncc3)n2)c1` [Compound B69, (E)-N-(4-(2-(1-ethyl-1H-imidazol-4-yl)vinyl)thiazol-2-yl)-1-(pyridin-4-ylmethyl)-1H-pyrrole-2-carboxamide], the “Liver Microsome Stability (Multiple Species): Rat - % Remaining after 30 min w/NADPH” value in data set [1] came to 0.28%. Further, the concentration for a half-maximal effect (EC50) in data set [2] and in data set [4] was over 25 µM in each case. Moreover, the IC50 in [3] is 0.119 µM; in data set [6] it was over 25 µM; in data set [9], over 25 µM; in data set [10], over 25 µM. Moreover, in [5], the “Liver Microsome Stability (Multiple Species): Mouse - % Remaining after 30 min w/NADPH” value was 0.32%. Further, in data set [7], the “Liver Microsome Stability (Multiple Species): Monkey - % Remaining after 30 min w/NADPH” value was 0.04%. Further, in [8], the “Liver Microsome Stability (Multiple Species): Human - % Remaining after 30 min w/NADPH” value was 0.01%. Also, in data set [9], the “24 hr Dox Inducible TNFaFLGluc 293FRT/TO: TNF/PD1” value is reported as over 209. The “24 hr Dox Inducible IL2FLGluc 293FRT/TO: IL2/PD1” value in data set [10] is over 210.

As to `CN(C)C(=O)CCn1cccc1C(=O)Nc1nc([C@H]2CCCN2c2ccccc2)cs1` [Compound C59, (R)-1-(3-(dimethylamino)-3-oxopropyl)-N-(4-(1-phenylpyrrolidin-2-yl)thiazol-2-yl)-1H-pyrrole-2-carboxamide], in data set [1], the “Liver Microsome Stability (Multiple Species): Rat - % Remaining after 30 min w/NADPH” value is 11.5%. The 50% effective concentration (EC50) in data set [2] and in [4] was over 25 µM each time. Also, the IC50 was 7.98 µM in data set [3] (mean), 12.2 µM in data set [6] (mean), over 25 µM in [9] (mean) and over 25 µM in data set [10] (mean). Moreover, the “Liver Microsome Stability (Multiple Species): Mouse - % Remaining after 30 min w/NADPH” value in [5] is listed as 3.23%. The “Liver Microsome Stability (Multiple Species): Monkey - % Remaining after 30 min w/NADPH” value in data set [7] is reported as 2.48%. Besides, the “Liver Microsome Stability (Multiple Species): Human - % Remaining after 30 min w/NADPH” value in [8] amounted to 0.87%. Further, the “24 hr Dox Inducible TNFaFLGluc 293FRT/TO: TNF/PD1” value in [9] (setting [11]) is recorded as over 3.13. Moreover, the “24 hr Dox Inducible IL2FLGluc 293FRT/TO: IL2/PD1” value in [10] (setting [11]) was 3.1.

Take `O=C(Nc1nc(/C=C/c2cn(C3CCCCC3)cn2)cs1)c1cccn1Cc1ccncc1` [Compound B54, (E)-N-(4-(2-(1-cyclohexyl-1H-imidazol-4-yl)vinyl)thiazol-2-yl)-1-(pyridin-4-ylmethyl)-1H-pyrrole-2-carboxamide]: the “Liver Microsome Stability (Multiple Species): Rat - % Remaining after 30 min w/NADPH” value in data set [1] turned out to be 4.57%. Besides, the EC50 in data set [2] was over 23.6 µM; in data set [4], 13.9 µM. Further, the IC50 in data set [3] was found to be 0.00685 µM; in data set [6] it was 2.95 µM; in [9] it was 9.42 µM; in data set [10], 5.52 µM. In addition, the “Liver Microsome Stability (Multiple Species): Mouse - % Remaining after 30 min w/NADPH” value in [5] is on record as 4.16%. In addition, the “Liver Microsome Stability (Multiple Species): Monkey - % Remaining after 30 min w/NADPH” value in [7] worked out at 2.69%. The “Liver Microsome Stability (Multiple Species): Human - % Remaining after 30 min w/NADPH” value in data set [8] is given as 0.4%. Moreover, in data set [9], the “24 hr Dox Inducible TNFaFLGluc 293FRT/TO: TNF/PD1” value was 1370. In addition, in data set [10], the “24 hr Dox Inducible IL2FLGluc 293FRT/TO: IL2/PD1” value was determined as 810.

On to `O=C(Nc1nc([C@H]2CCCN2c2ccccc2)cs1)c1cccn1CCc1nnn[nH]1` [Compound C16, (R)-1-(2-(1H-tetrazol-5-yl)ethyl)-N-(4-(1-phenylpyrrolidin-2-yl)thiazol-2-yl)-1H-pyrrole-2-carboxamide], for which, in data set [1], the “Liver Microsome Stability (Multiple Species): Rat - % Remaining after 30 min w/NADPH” value is 3.26%. Moreover, the EC50 in data set [2] and in data set [4] was over 25 µM in each case. Further, the IC50 was 8.08 µM in data set [3] (mean), 8.93 µM in data set [6] (mean), over 25 µM in [9] (mean) and 6.9 µM in data set [10] (mean). Also, the “Liver Microsome Stability (Multiple Species): Mouse - % Remaining after 30 min w/NADPH” value in data set [5] is listed as 26.7%. Also, the “Liver Microsome Stability (Multiple Species): Monkey - % Remaining after 30 min w/NADPH” value in data set [7] stood at 78.9%. Besides, the “Liver Microsome Stability (Multiple Species): Human - % Remaining after 30 min w/NADPH” value in data set [8] was determined as 8.13%. Moreover, in data set [9] (setting [11]), the “24 hr Dox Inducible TNFaFLGluc 293FRT/TO: TNF/PD1” value is over 3.09. Besides, in [10] (setting [11]), the “24 hr Dox Inducible IL2FLGluc 293FRT/TO: IL2/PD1” value turned out to be 0.85.
